Inhibition data for one compound are collected here from ChEMBL document CHEMBL5120890, “Untapped Pharmaceutical Potential of 4,5,4'-Trihydroxy-3,3'-dimethoxybibenzyl for Regulating Obesity: A Cell-Based Study with a Focus on Terminal Differentiation in Adipogenesis” (J Nat Prod, 2022).

This assay has as its system 3T3-L1. Description: Inhibition of preadipocyte differentiation in mouse 3T3-L1 cells assessed as reduction in lipid droplet accumulation in maturation at 0.5 to 5 uM incubated for 8 days by Oil Red O staining based inverted optical microscopic analysis. It is filed as functional, cell-based. Particulars: dose 0.5-5 µM, time 8.0 day.

SMILES strings stand for the structures. The source made the active and inactive calls. The calls are words filed in the database; no cut-off is given here.

With `COc1cc(CCc2cc(O)c(O)c(OC)c2)ccc1O`, the inhibition entry was “Active”.
